Source: US8445489B2, “Aryl ether pyridazinone derivatives” (Merck Patent GmbH, priority 2007, dated 2013)

Target: T1, Met kinase (Homo sapiens, UniProt P08581)
T1 construct: 6His (N); purchased Upstate 14-526; host or cells: Sf21 insect cells (S. frugiperda), baculovirus
Assay: Met kinase inhibition (enzyme assay), flashplate method
Format: biochemical
Conditions: not given
Description: According to the manufacturer's data (Met, active, upstate, catalogue No. 14-526), Met kinase is expressed for the purposes of protein production in insect cells (Sf21; S. frugiperda) and subsequent affinity-chromatographic purification as “N-terminal 6His-tagged” recombinant human protein in a baculovirus expression vector.
The test plates used are 96-well Flashplate® microtitre plates from Perkin Elmer (Cat. No. SMP200). The components of the kinase reaction described below are pipetted into the assay plate. The Met kinase and the substrate poly Ala-Glu-Lys-Tyr, (pAGLT, 6:2:5:1), are incubated for 3 hrs at room temperature with radioactively labelled ^33P-ATP in the presence and absence of test substances in a total volume of 100 μl. The reaction is terminated using 150 μl of a 60 mM EDTA solution. After incubation for a further 30 min at room temperature, the supernatants are filtered off with suction, and the wells are washed three times with 200 μl of 0.9% NaCl solution each time. The measurement of the bound radioactivity is carried out by means of a scintillation measuring instrument (Topcount NXT, Perkin-Elmer).
The full value used is the inhibitor-free kinase reaction. This should be approximately in the range 6000-9000 cpm. The pharmacological zero value used is staurosporin in a final concentration of 0.1 mM. The inhibitory values (IC50) are determined using the RS1_MTS program.
Kinase Reaction Conditions Per Well:
10 μl of substance to be tested in assay buffer with 10% of DMSO
10 μl of ATP (final concentration 1 μM cold, 0.35 μCi of ^33P-ATP)
50 μl of Met kinase/substrate mixture in assay buffer;
• (10 ng of enzyme/well, 50 ng of pAGLT/well)
50 mM HEPES • 3 mM magnesium chloride • 3 μM sodium orthovanadate • 3 mM manganese(II) chloride • 1 mM dithiothreitol (DTT) pH=7.5 (to be set using sodium hydroxide)
60 mM Titriplex III (EDTA) • ^33P-ATP: Perkin-Elmer; • Met kinase: Upstate, Cat. No. 14-526, Stock 1 μg/10 μl; spec. activity 954 U/mg; • Poly-Ala-Glu-Lys-Tyr, 6:2:5:1: Sigma Cat. No. P1152 In-Vivo Tests (FIG. 1/1) Experimental Procedure: […]

T1 sequence (P08581 956-1390 limits assumed): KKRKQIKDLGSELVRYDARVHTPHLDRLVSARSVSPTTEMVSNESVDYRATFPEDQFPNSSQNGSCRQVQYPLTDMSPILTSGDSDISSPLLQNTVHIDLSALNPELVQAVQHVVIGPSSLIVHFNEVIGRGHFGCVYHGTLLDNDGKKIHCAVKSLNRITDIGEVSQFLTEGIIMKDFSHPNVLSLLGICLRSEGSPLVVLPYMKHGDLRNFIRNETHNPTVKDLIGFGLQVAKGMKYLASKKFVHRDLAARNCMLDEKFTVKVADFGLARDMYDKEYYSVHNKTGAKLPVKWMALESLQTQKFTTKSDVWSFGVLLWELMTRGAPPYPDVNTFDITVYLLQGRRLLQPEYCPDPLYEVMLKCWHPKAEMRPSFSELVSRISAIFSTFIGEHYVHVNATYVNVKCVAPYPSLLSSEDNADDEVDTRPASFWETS

Structure (SMILES)	IC50 [nM]
CCOC(=O)Nc1cccc(Cn2nc(-c3cc(F)c(OCCCN4CCOCC4=O)c(F)c3)ccc2=O)c1 [Compound A28]	10 to 1000
CCOC(=O)Nc1cccc(Cn2nc(-c3ccc(OCCN4CCOCC4)cc3)ccc2=O)c1 [Compound A1]	10 to 1000
CCOC(=O)Nc1cccc(Cn2nc(-c3cc(F)c(OCCCCCN)c(F)c3)ccc2=O)c1 [Compound A52]	10 to 1000
CCOC(=O)Nc1cccc(Cn2nc(-c3ccc(OCCCCO)cc3)ccc2=O)c1 [Compound A10]	10 to 1000
CN1CCN(CCCOc2c(F)cc(-c3ccc(=O)n(Cc4ccc5[nH]c(=O)[nH]c5c4)n3)cc2F)CC1 [Compound A56, 5-(3-{3,5-difluoro-4-[3-(4-methylpiperazin-1-yl)propoxy]-phenyl}-6-oxo-6H-pyridazin-1-ylmethyl)-1,3-dihydrobenzimidazol-2-one]	10 to 1000
CCOC(=O)Nc1cccc(Cn2nc(-c3cc(F)c(OCCCCCNC(=O)OC(C)(C)C)c(F)c3)ccc2=O)c1 [Compound A31]	10 to 1000
CCOC(=O)Nc1cccc(Cn2nc(-c3cc(F)c(OCCCCO)c(F)c3)ccc2=O)c1 [Compound A35]	10 to 1000
CCOC(=O)Nc1cccc(Cn2nc(-c3cc(F)c(OCCCN(C)C)c(F)c3)ccc2=O)c1 [Compound A27]	10 to 1000
CCOC(=O)Nc1cccc(Cn2nc(-c3ccc(OC4CCCN(CC)C4)cc3)ccc2=O)c1 (stereo not shown) [Compound A15]	10 to 1000
CCOC(=O)Nc1cccc(Cn2nc(-c3cccc(OCCCOC)c3)ccc2=O)c1 [Compound A25]	10 to 1000
CCOC(=O)Nc1cccc(Cn2nc(-c3cccc(OCCCCO)c3)ccc2=O)c1 [Compound A22]	10 to 1000
CCOC(=O)Nc1cccc(Cn2nc(-c3ccc(OCCOC)cc3)ccc2=O)c1 [Compound A5]	10 to 1000
CCOC(=O)Nc1cccc(Cn2nc(-c3cc(F)c(OCCN(C)C)c(F)c3)ccc2=O)c1 [Compound A33]	10 to 1000
CCOC(=O)Nc1cccc(Cn2nc(-c3ccc(OCCCO)cc3)ccc2=O)c1 [Compound A2]	10 to 1000
CCOC(=O)Nc1cccc(Cn2nc(-c3ccc(OCCCCCNC(=O)OC(C)(C)C)cc3)ccc2=O)c1 [Compound A4]	10 to 1000
CCOC(=O)Nc1cccc(Cn2nc(-c3ccc(OCCCOC)cc3)ccc2=O)c1 [Compound A11]	10 to 1000
CCOC(=O)Nc1cccc(Cn2nc(-c3cc(F)c(OCCOC)c(F)c3)ccc2=O)c1 [Compound A34]	10 to 1000
CCOC(=O)Nc1cccc(Cn2nc(-c3ccc(OCC(C)CN4CCOCC4)cc3)ccc2=O)c1 (stereo not shown) [Compound A18]	10 to 1000
CCOC(=O)Nc1cccc(Cn2nc(-c3ccc(OCCO)cc3)ccc2=O)c1 [Compound A9]	10 to 1000
CCOC(=O)Nc1cccc(Cn2nc(-c3ccc(OCCCN4CCCCC4)cc3)ccc2=O)c1 [Compound A16]	10 to 1000
CCOC(=O)Nc1cccc(Cn2nc(-c3ccc(OCCCCN)cc3)ccc2=O)c1 [Compound A50]	10 to 1000
CCOC(=O)Nc1cccc(Cn2nc(-c3cccc(OCCOC)c3)ccc2=O)c1 [Compound A21]	10 to 1000
CCOC(=O)Nc1cccc(Cn2nc(-c3cccc(OCCCCNC(=O)OC(C)(C)C)c3)ccc2=O)c1 [Compound A23]	10 to 1000

Structure (SMILES)	IC50 [nM]
CCOC(=O)Nc1cccc(Cn2nc(-c3ccc(OCCN(C)C)cc3)ccc2=O)c1 [Compound A8]	10 to 1000
CCOC(=O)Nc1cccc(Cn2nc(-c3cc(F)c(OCCCO)c(F)c3)ccc2=O)c1 [Compound A38]	10 to 1000
CCOC(=O)Nc1cccc(Cn2nc(-c3ccc(OCCNC(=O)OC(C)(C)C)cc3)ccc2=O)c1 [Compound A6]	10 to 1000
CCOC(=O)Nc1cccc(Cn2nc(-c3ccc(OCCN)cc3)ccc2=O)c1 [Compound A48]	10 to 1000
CCOC(=O)Nc1cccc(Cn2nc(-c3cc(F)c(OCCCN)c(F)c3)ccc2=O)c1 [Compound A53]	10 to 1000
CCOC(=O)Nc1cccc(Cn2nc(-c3cc(F)c(OCCCNC)c(F)c3)ccc2=O)c1 [Compound A29a]	10 to 1000
CCOC(=O)Nc1cccc(Cn2nc(-c3cccc(OCCNC(=O)OC(C)(C)C)c3)ccc2=O)c1 [Compound A26]	10 to 1000
CCOC(=O)Nc1cccc(Cn2nc(-c3ccc(OCCCN(C)C)cc3)ccc2=O)c1 [Compound A3]	10 to 1000
CCOC(=O)Nc1cccc(Cn2nc(-c3ccc(OCCCCNC(=O)OC(C)(C)C)cc3)ccc2=O)c1 [Compound A12]	10 to 1000
CCOC(=O)Nc1cccc(Cn2nc(-c3cccc(OCCCCN)c3)ccc2=O)c1 [Compound A49]	10 to 1000
CCOC(=O)Nc1cccc(Cn2nc(-c3ccc(OCCC4CCCN4C)cc3)ccc2=O)c1 (stereo not shown) [Compound A17]	10 to 1000
CN(C)CCCOc1c(F)cc(-c2ccc(=O)n(Cc3ccc4[nH]c(=O)[nH]c4c3)n2)cc1F [Compound A55, 5-{3-[4-(3-dimethylaminopropoxy)-3,5-difluorophenyl]-6-oxo-6H-pyridazin-1-ylmethyl}-1,3-dihydrobenzimidazol-2-one]	10 to 1000
CCOC(=O)Nc1cccc(Cn2nc(-c3cccc(OCCCCOC)c3)ccc2=O)c1 [Compound A20]	10 to 1000
CCOC(=O)Nc1cccc(Cn2nc(-c3ccc(OCCN(C(C)C)C(C)C)cc3)ccc2=O)c1 [Compound A13]	10 to 1000
CCOC(=O)Nc1cccc(Cn2nc(-c3cc(F)c(OCCCOC)c(F)c3)ccc2=O)c1 [Compound A37]	10 to 1000
CCOC(=O)Nc1cccc(Cn2nc(-c3ccc(OCCCCOC)cc3)ccc2=O)c1 [Compound A7]	10 to 1000
CCOC(=O)Nc1cccc(Cn2nc(-c3cccc(OCCN4CCOCC4)c3)ccc2=O)c1 [Compound A24]	10 to 1000
CCOC(=O)Nc1cccc(Cn2nc(-c3cc(F)c(OCCN)c(F)c3)ccc2=O)c1 [Compound A45]	10 to 1000
CCOC(=O)Nc1cccc(Cn2nc(-c3cccc(OCCCO)c3)ccc2=O)c1 [Compound A19]	10 to 1000
CCOC(=O)Nc1cccc(Cn2nc(-c3ccc(OCC(=O)N(C)C)cc3)ccc2=O)c1 [Compound A14]	10 to 1000
CCOC(=O)Nc1cccc(Cn2nc(-c3cc(F)c(OCCCN4CCCC4)c(F)c3)ccc2=O)c1 [Compound A43]	10 to 1000
CCOC(=O)Nc1cccc(Cn2nc(-c3ccc(OCCCCCN)cc3)ccc2=O)c1 [Compound A44]	10 to 1000

Test system: TPR-Met/NIH3T3 cells
Assay: In-vivo test, TPR-Met/NIH3T3 tumour model in mice
Conditions: 200 mg/kg daily by gastric tube, 9 days; tumour volume; female Balb/C mice, s.c. TPR-Met/NIH3T3 cells
Experimental: Female Balb/C mice (breeder: Charles River Wiga) were 5 weeks old on arrival. They were acclimatised to our keeping conditions for 7 days. Each mouse was subsequently injected subcutaneously in the pelvic area with 4 million TPR-Met/NIH3T3 cells in 100 μl of PBS (without Ca++ and Mg++). […] 100 μl of vehicle (0.25% methylcellulose/100 mM acetate buffer, pH 5.5) were administered daily to the control group, and 200 mg/kg of “A56” or “A91” dissolved in the vehicle (volume likewise 100 μl/animal) were administered daily to the treatment groups, in each case by gastric tube.
The length (L) and breadth (B) were measured using a Vernier calliper, and the tumour volume was calculated from the formula L×B×B/2.
4 or 5 animals per cage, feeding with commercial mouse food (Sniff).

Structure (SMILES)	antitumoural action
CN1CCN(CCCOc2c(F)cc(-c3ccc(=O)n(Cc4ccc5[nH]c(=O)[nH]c5c4)n3)cc2F)CC1 [Compound A56, 5-(3-{3,5-difluoro-4-[3-(4-methylpiperazin-1-yl)propoxy]-phenyl}-6-oxo-6H-pyridazin-1-ylmethyl)-1,3-dihydrobenzimidazol-2-one]	significant antitumoural action
